Source: US20100003208A1, “Skin Care Products, As Well As Foods and Beverages Containing 6-O-PUFA Ascorbic Esters” (Suntory Holdings Limited, priority 2004, published 2010)

What was measured:
[1] = system: human skin strips; test: Permeability of ascorbic acid to the tissue of human skin strips (modified Bronov diffusion cell); assay type: in vitro ADME; settings: 100 mM (3.38% w/w; PBS(−)) on keratinized layer, re-dosed at 4 and 17 h, 24 hours; compared with unmodified vitamin C; FIG. 3
Procedure: A human skin section extracted from the right abdominal part of a volunteer with an informed consent was vertically split into small strips, which were set in a modified Bronov diffusion cell chamber. With the underside of the skin immersed in DMEM (2 mL) to supply nutrients, the keratinized layer was aerated with 5% CO2 to maintain the pH of the medium at 7.25. […] The total quantity of vitamin C (the sum of reduced and oxidized forms of vitamin C) and the quantity of reduced form of vitamin C in the epidermis and the dermis were measured; the total quantity of vitamin C was measured in the presence of 16 mM dithiothreitol as a reducing agent, whereas the quantity of reduced form of vitamin C was measured without adding any such reducing agent. The measured values were used to calculate the proportion of total vitamin C as occupied by reduced form of vitamin C. Similarly, 6-O-arachidonoyl ascorbate and 6-O-docosahexaenoyl ascorbate, as well as ascorbic acid (comparison) were evaluated and the results are also shown in FIG. 3.

[2] = system: human skin keratocytes HaCaT; test: Protective effect on apoptosis of HaCaT keratocytes under UVA irradiation (WST-1 viability); assay type: cell-based; settings: 200 μM added 2 hours before 32-48 mJ/cm^2 UVA; WST-1 24 hours after irradiation; FIG. 2
Procedure: Human skin keratocytes HaCaT (the cell line granted by courtesy of Dr. Fusenig at University of Heidelberg) were inoculated on a 24-well plate at a density of 10,000 cells/well in a 10% fetal bovine serum (FBS) containing Dulbecco modified Eagle medium (DMEM); 18 hours later, the medium was irradiated with 32-48 mJ/cm^2 of UVA. Two hours before the irradiation, 100-200 μM of 6-O-dihomo-γ-linolenoyl ascorbate had been added to the medium but it was removed just before the irradiation and the medium was rinsed. UVA irradiation was performed in PBS but in the absence of the drug; after the irradiation, culture was continued in the 10% FBS containing DMEM and 24 hours after the irradiation, the cell viability was evaluated by a mitochondrial dehydrogenase activity assay method using 2-(4-iodophenyl)-3-(4-nitrophenyl)-5-(2,4-disulfophenyl)-2H-tetrazolium monosodium salt (WST-1).

[3] = molecular target: aldose reductase (Homo sapiens, UniProt P15121); settings: cited from earlier work
[4] = system: streptozotocin-induced diabetic model; settings: in vivo; cited from earlier work

Row | Compound | amount of vitamin C in the dermis [1] | viability of human skin keratocytes [2] | aldose reductase inhibitory action [3] | efficacy in streptozotocin-induced diabetic model [4]
1 | CCCCC/C=C\C/C=C\C/C=C\C/C=C\CCCC(=O)OC[C@H](O)[C@H]1OC(=O)C(O)=C1O [6-O-arachidonoyl ascorbate] | increased markedly |  |  | 
2 | CCCCC/C=C\C/C=C\C/C=C\CCCCCCC(=O)OC[C@H](O)[C@H]1OC(=O)C(O)=C1O [6-O-dihomo-γ-linolenoyl ascorbate] | increased markedly | improved the viability |  | 
3 | CCCCC/C=C\C/C=C\C/C=C\CCCCC(=O)OC[C@H](O)[C@H]1OC(=O)C(O)=C1O [6-O-γ-linolenoyl ascorbate] |  |  | aldose reductase inhibitory action | effective
